ChEMBL document CHEMBL5108005, “Rational design of a trypanocidal peptide derived from Dinoponera quadriceps venom” (Eur J Med Chem, 2022)
Active and inactive are the calls of the source. The rule behind the calls is not given here.

What was measured:
[1] = Cytotoxicity against monkey LLC-MK2 cells assessed as reduction in cell viability incubated for 24 hrs by MTT assay; type: toxicity, cell-based; details: Macaca mulatta (monkey)
Trypanosoma cruzi [2] = experiment: Induction of oxidative stress in Trypanosoma cruzi Y epimastigotes assessed as increase in ROS formation at 13.5 uM incubated for 24 hrs by DCFH-DA staining based analysis relative to control; type: functional
Trypanosoma cruzi [3] = experiment: Induction of membrane damage in Trypanosoma cruzi Y epimastigotes at EC50 measured after 12 hrs by SEM analysis; type: organism-based; details: Cell membrane
Trypanosoma cruzi [4] = experiment: Antitrypanosomal activity against Trypanosoma cruzi Y epimastigotes assessed as parasite growth inhibition measured after 48 hrs by hemocytometer chamber based analysis; type: functional, organism-based
[5] = Cytotoxicity against monkey LLC-MK2 cells assessed as reduction in cell viability incubated for 48 hrs by MTT assay; type: toxicity, cell-based; details: Macaca mulatta (monkey)
[6] = Selectivity index, ratio of EC50 for Cytotoxicity against monkey LLC-MK2 cells to EC50 for antitrypanosomal activity against Trypanosoma cruzi Y trypomastigotes infected in monkey LLC-MK2 cells; type: toxicity, cell-based; details: read-out: Ratio EC50
Trypanosoma cruzi [7] = experiment: Induction of cell death in Trypanosoma cruzi Y epimastigotes assessed as early apoptotic cells at 13.5 uM incubated for 24 hrs by Annexin V/7-AAD staining based flow cytometric analysis (reference value: 0.11 %); type: functional
Trypanosoma cruzi [8] = experiment: (§1) Antitrypanosomal activity against Trypanosoma cruzi Y amastigotes infected in monkey LLC-MK2 cells assessed as reduction in reduction in amastigotes per 100 cells measured after 48 hrs by Giemsa staining based analysis; type: functional, organism-based; details: LLC-MK2, 48 h
Trypanosoma cruzi [9] = experiment: Induction of cell death in Trypanosoma cruzi Y epimastigotes assessed as late apoptotic cells at 13.5 uM incubated for 24 hrs by Annexin V/7-AAD staining based flow cytometric analysis (reference value: 0.12 %); type: functional
[10] = as §1, with “Selectivity index, ratio of EC50 for Cytotoxicity against monkey LLC-MK2 cells to EC50 for antitrypanosomal” for “Antitrypanosomal”; type: toxicity, cell-based; details: read-out: Ratio EC50
[11] = as §1, with “Selectivity index, ratio of EC50 for Cytotoxicity against monkey LLC-MK2 cells to EC50 for antitrypanosomal” for “Antitrypanosomal”, “24” for “48”; type: toxicity, cell-based; details: read-out: Ratio EC50
Trypanosoma cruzi [12] = experiment: Induction of cell death in Trypanosoma cruzi Y epimastigotes assessed as dead cells at 13.5 uM incubated for 24 hrs by Annexin V/7-AAD staining based flow cytometric analysis (reference value: 1.13 %); type: functional
Trypanosoma cruzi [13] = experiment: Antitrypanosomal activity against Trypanosoma cruzi Y trypomastigotes infected in monkey LLC-MK2 cells assessed as reduction in cell death inducing capability incubated for 24 hrs by hemocytometer chamber based analysis; type: functional, organism-based; details: LLC-MK2, 24 h
Trypanosoma cruzi [14] = experiment: Antitrypanosomal activity against Trypanosoma cruzi Y epimastigotes assessed as parasite growth inhibition measured after 72 hrs by hemocytometer chamber based analysis; type: functional, organism-based
Trypanosoma cruzi [15] = experiment: Antitrypanosomal activity against Trypanosoma cruzi Y amastigotes infected in monkey LLC-MK2 cells assessed as reduction in reduction in amastigotes per 100 cells measured after 24 hrs by Giemsa staining based analysis; type: functional, organism-based; details: LLC-MK2, 24 h
Trypanosoma cruzi [16] = experiment: Antitrypanosomal activity against Trypanosoma cruzi Y epimastigotes assessed as parasite growth inhibition measured after 24 hrs by hemocytometer chamber based analysis; type: functional, organism-based
Trypanosoma cruzi [17] = experiment: Induction of cell death in Trypanosoma cruzi Y epimastigotes assessed as live cells at 13.5 uM incubated for 24 hrs by Annexin V/7-AAD staining based flow cytometric analysis (reference value: 98.6 %); type: functional
Trypanosoma cruzi [18] = experiment: Induction of mitochondrial membrane potential loss in Trypanosoma cruzi Y epimastigotes at 7.2 uM incubated for 24 hrs by Rhodamine 123 staining based flow cytometric analysis relative to control; type: functional
Trypanosoma cruzi [19] = experiment: Induction of cell death in Trypanosoma cruzi Y epimastigotes assessed as live cells at 7.2 uM incubated for 24 hrs by Annexin V/7-AAD staining based flow cytometric analysis (reference value: 98.6 %); type: functional
Trypanosoma cruzi [20] = experiment: Induction of cell death in Trypanosoma cruzi Y epimastigotes assessed as dead cells at 7.2 uM incubated for 24 hrs by Annexin V/7-AAD staining based flow cytometric analysis (reference value: 1.13 %); type: functional
Trypanosoma cruzi [21] = experiment: Induction of oxidative stress in Trypanosoma cruzi Y epimastigotes assessed as increase in ROS formation at 7.2 uM incubated for 24 hrs by DCFH-DA staining based analysis relative to control; type: functional
Trypanosoma cruzi [22] = experiment: Induction of cell death in Trypanosoma cruzi Y epimastigotes assessed as late apoptotic cells at 7.2 uM incubated for 24 hrs by Annexin V/7-AAD staining based flow cytometric analysis (reference value: 0.12 %); type: functional
Trypanosoma cruzi [23] = experiment: Induction of cell death in Trypanosoma cruzi Y epimastigotes assessed as early apoptotic cells at 7.2 uM incubated for 24 hrs by Annexin V/7-AAD staining based flow cytometric analysis (reference value: 0.11 %); type: functional
Trypanosoma cruzi [24] = experiment: Induction of cell death in Trypanosoma cruzi Y epimastigotes assessed as dead cells at 125 uM incubated for 24 hrs by Annexin V/7-AAD staining based flow cytometric analysis (reference value: 1.13 %); type: functional
Trypanosoma cruzi [25] = experiment: Induction of cell death in Trypanosoma cruzi Y epimastigotes assessed as live cells at 125 uM incubated for 24 hrs by Annexin V/7-AAD staining based flow cytometric analysis (reference value: 98.6 %); type: functional
Trypanosoma cruzi [26] = experiment: Induction of cell death in Trypanosoma cruzi Y epimastigotes assessed as early apoptotic cells at 125 uM incubated for 24 hrs by Annexin V/7-AAD staining based flow cytometric analysis (reference value: 0.11 %); type: functional
Trypanosoma cruzi [27] = experiment: Induction of mitochondrial membrane potential loss in Trypanosoma cruzi Y epimastigotes at 125 uM incubated for 24 hrs by Rhodamine 123 staining based flow cytometric analysis relative to control; type: functional
Trypanosoma cruzi [28] = experiment: Induction of cell death in Trypanosoma cruzi Y epimastigotes assessed as late apoptotic cells at 125 uM incubated for 24 hrs by Annexin V/7-AAD staining based flow cytometric analysis (reference value: 0.12 %); type: functional
Trypanosoma cruzi [29] = experiment: Antitrypanosomal activity against Trypanosoma cruzi Y trypomastigotes infected in monkey LLC-MK2 cells assessed as reduction in cell death inducing capability incubated for 24 hrs by Neubauer chamber based analysis; type: functional, organism-based; details: LLC-MK2, 24 h

Molecule | EC50 at 24 h [1] | EC50 (Trypanosoma cruzi [4]) | selectivity ratio [6] | EC50 (Trypanosoma cruzi [13]) | EC50 (Trypanosoma cruzi [14]) | EC50 (Trypanosoma cruzi [16]) | also measured
H-FWKTLAKWALKAIPA-OH | 73.4 µM | 16.8 µM | 85.3 | 0.86 µM | 19.3 µM | 13.5 µM | Activity (Trypanosoma cruzi [2]): 58%; Activity (Trypanosoma cruzi [3]): Active; EC50 at 48 h [5]: 43.9 µM; Activity (Trypanosoma cruzi [7]): 0.01%; EC50 (Trypanosoma cruzi [8]): 0.28 µM; Activity (Trypanosoma cruzi [9]): 1.04%; selectivity ratio at 48 h [10]: 157; selectivity ratio at 24 h [11]: 80.7; Activity (Trypanosoma cruzi [12]): 25.06%; EC50 (Trypanosoma cruzi [15]): 0.91 µM; Activity (Trypanosoma cruzi [17]): 74.1%
H-FWGTLAKWALKAIPA-OH | > 50 µM |  | < 50 | > 50 µM |  |  | 
H-AIPAAMGMKQNK-OH | 43.1 µM | 9.7 µM | 72.9 | 0.59 µM | 8.7 µM | 7.2 µM | Activity (Trypanosoma cruzi [3]): Active; EC50 at 48 h [5]: 35.8 µM; Activity (Trypanosoma cruzi [18]): 65%; Activity (Trypanosoma cruzi [19]): 85.36%; Activity (Trypanosoma cruzi [20]): 12.42%; Activity (Trypanosoma cruzi [21]): 40%; EC50 (Trypanosoma cruzi [8]): 0.37 µM; Activity (Trypanosoma cruzi [22]): 1.09%; selectivity ratio at 48 h [10]: 96.7; selectivity ratio at 24 h [11]: 32.6; Activity (Trypanosoma cruzi [23]): 1.13%; EC50 (Trypanosoma cruzi [15]): 1.32 µM
H-FWGRLAKWALKAIPA-OH | 9.6 µM |  | 8.8 | 1.09 µM |  |  | 
O=C(Cn1ccnc1[N+](=O)[O-])NCc1ccccc1 [BENZNIDAZOLE] | 503 µM | 37.4 µM | 3.11 | 161 µM | 22.1 µM | 115 µM | Activity (Trypanosoma cruzi [24]): 5.71%; Activity (Trypanosoma cruzi [25]): 93.22%; Activity (Trypanosoma cruzi [26]): 0.06%; Activity (Trypanosoma cruzi [27]): 70%; Activity (Trypanosoma cruzi [28]): 1.01%
H-FWGKLAKWALKAIPA-OH | 60 µM |  | 58.2 | 1.03 µM |  |  | 
H-FWRTLAKWALKAIPA-OH | 13 µM |  | 18.8 | 0.69 µM |  |  | 
H-FWGTLAKWALRAIPA-OH | 38.5 µM |  | 24.7 | 1.54 µM |  |  | 
H-FWGTLAKWALKAIPAAMGMKQNK-OH | 25.7 µM | 3.6 µM | 80.3 |  | 2.4 µM | 4.7 µM | EC50 (Trypanosoma cruzi [29]): 0.32 µM
H-FWGTLARWALKAIPA-OH | 55 µM |  | 10.8 | 5.1 µM |  |  | 
H-FWGTLAKWAKKAIPA-OH | 97 µM |  |  | 1.09 µM |  |  | 
H-GTLAKWALKAIPA-OH | 189 µM |  | 21.6 | 8.76 µM |  |  | 
H-FWGTLAKWARKAIPA-OH | 25.1 µM |  | 7.5 | 3.31 µM |  |  | 
